Measured values reported in publication PMC7822874, “Chemoprotective antimalarials identified through quantitative high-throughput screening of Plasmodium blood and liver stage parasites” (Scientific Reports, 2021).
Read-outs that look alike come from different tables or passages of the source.

Experiments:
[1] = system: P. berghei-ANKA-GFP-LucCON liver stage parasites in HepG2-A16-CD81EGFP cells; experiment: P. berghei liver stage Pb-Luc assay, Method 1 (UCSD, 1536-well); assay type: cell-based, Plasmodium berghei; conditions: Plasmodium berghei, 48 h, average of 2 wells, 1536-well plate; for activity at 1 µM: nominal 1 uM (10 mM stock), […] for 15 mM, 1.2 uM for 12 mM, 2 uM for 20 mM stock; for activity at 3 µM: nominal 3 uM (10 mM stock), 4.5 uM for 15 mM, 3.6 uM for 12 mM, 6 uM for 20 mM stock; as to all read-outs here: reference of the scale not given here
[2] = system: Plasmodium falciparum Dd2 asexual blood stage parasites; experiment: microbe, parasite or virus in culture; parameters: species or system Plasmodium falciparum Dd2 in human erythrocytes; single determination (one 11-point concentration-response curve); conditions: Plasmodium falciparum, DD2, Erythrocyte, 72 h; read-out: AC50
in vitro = conditions: human
[3] = repeat 1, read-out: Pb-Luc signal, 1 uM, repeat 1
[4] = repeat 2, read-out: Pb-Luc signal, 1 uM, repeat 2
[5] = repeat 3, read-out: Pb-Luc signal, 1 uM, repeat 3
[6] = repeat 1, read-out: Pb-Luc signal, 3 uM, repeat 1
[7] = repeat 2, read-out: Pb-Luc signal, 3 uM, repeat 2
[8] = repeat 3, read-out: Pb-Luc signal, 3 uM, repeat 3
[9] = nominal 1 uM (10 mM stock), […] for 15 mM, 1.2 uM for 12 mM, 2 uM for 20 mM stock, average of 2 wells, repeat 2
[10] = nominal 3 uM (10 mM stock), 4.5 uM for 15 mM, 3.6 uM for 12 mM, 6 uM for 20 mM stock, average of 2 wells, repeat 2
[11] = HepG2-A16-CD81EGFP cells, uninfected

Cc1ccc2oc(=O)c3cnn(CC(=O)Nc4cccc(C(F)(F)F)c4)c3c2c1 [NCGC00110933-01]
activity at 1 µM [1, 3]: 106%
activity at 1 µM [1, 4]: 124%
activity at 1 µM [1, 5]: 113%
activity at 3 µM [1, 6]: 86.9%
activity at 3 µM [1, 7]: 117%
activity at 3 µM [1, 8]: 100%
AC50 [2]: 2.66 µM
HepG2 viability signal, 1 uM, repeat 2 (HepG2-A16-CD81EGFP cells; [9]): 99.44%
HepG2 viability signal, 3 uM, repeat 2 (HepG2-A16-CD81EGFP cells; [10]): 101.21%
viability at 48 h, 1 µM (in vitro; [11]): 94%
viability at 48 h, 3 µM (in vitro; [11]): 94.8%

CCOC(=O)c1ccc2c(c1)[C@@H]1C=CC[C@@H]1[C@H](c1cccc(OC)c1OC)N2 [NCGC00100279-01]
activity at 1 µM [1, 3]: 74.5%
activity at 1 µM [1, 4]: 94.6%
activity at 1 µM [1, 5]: 122%
activity at 3 µM [1, 6]: 60.1%
activity at 3 µM [1, 7]: 74.5%
activity at 3 µM [1, 8]: 64.8%
AC50 [2]: 2.66 µM
HepG2 viability signal, 1 uM, repeat 2 (HepG2-A16-CD81EGFP cells; [9]): 100.32%
HepG2 viability signal, 3 uM, repeat 2 (HepG2-A16-CD81EGFP cells; [10]): 102.96%
viability at 48 h, 1 µM (in vitro; [11]): 97.9%
viability at 48 h, 3 µM (in vitro; [11]): 105%

COc1ccc(-c2cc(=O)oc3c4c(ccc23)OCN(Cc2ccccc2)C4)cc1 [NCGC00116344-01]
activity at 1 µM [1, 3]: 71.5%
activity at 1 µM [1, 4]: 126%
activity at 1 µM [1, 5]: 103%
activity at 3 µM [1, 6]: 62.6%
activity at 3 µM [1, 7]: 101%
activity at 3 µM [1, 8]: 76.9%
AC50 [2]: 2.99 µM
HepG2 viability signal, 1 uM, repeat 2 (HepG2-A16-CD81EGFP cells; [9]): 95.59%
HepG2 viability signal, 3 uM, repeat 2 (HepG2-A16-CD81EGFP cells; [10]): 97.26%
viability at 48 h, 1 µM (in vitro; [11]): 98.2%
viability at 48 h, 3 µM (in vitro; [11]): 101%

O=C(Nc1ccc2c(N3CCCC3)ncnc2c1)c1cccc(Br)c1 [NCGC00425495-01]
activity at 1 µM [1, 3]: 70.5%
activity at 1 µM [1, 4]: 86.1%
activity at 1 µM [1, 5]: 85.5%
activity at 3 µM [1, 6]: 34.5%
activity at 3 µM [1, 7]: 39.4%
activity at 3 µM [1, 8]: 21.9%
AC50 [2]: 0.668 µM
HepG2 viability signal, 1 uM, repeat 2 (HepG2-A16-CD81EGFP cells; [9]): 101.29%
HepG2 viability signal, 3 uM, repeat 2 (HepG2-A16-CD81EGFP cells; [10]): 98.07%
viability at 48 h, 1 µM (in vitro; [11]): 101%
viability at 48 h, 3 µM (in vitro; [11]): 97.5%

CC1CCCN(Cc2c(O)ccc3c(=O)c(-c4ccccc4Cl)c(C(F)(F)F)oc23)C1 (centres unmarked) [NCGC00100585-01]
activity at 1 µM [1, 3]: 99.2%
activity at 1 µM [1, 4]: 115%
activity at 1 µM [1, 5]: 106%
activity at 3 µM [1, 6]: 62.6%
activity at 3 µM [1, 7]: 101%
activity at 3 µM [1, 8]: 122%
AC50 [2]: 0.841 µM
HepG2 viability signal, 1 uM, repeat 2 (HepG2-A16-CD81EGFP cells; [9]): 105.16%
HepG2 viability signal, 3 uM, repeat 2 (HepG2-A16-CD81EGFP cells; [10]): 104.39%
viability at 48 h, 1 µM (in vitro; [11]): 108%
viability at 48 h, 3 µM (in vitro; [11]): 112%

COc1ccccc1NC(=O)N1CCOc2ccc(CN3CCc4ccccc4C3)cc2C1 [NCGC00471234-01]
activity at 1 µM [1, 3]: 118%
activity at 1 µM [1, 4]: 82%
activity at 1 µM [1, 5]: 108%
activity at 3 µM [1, 6]: 110%
activity at 3 µM [1, 7]: 87.1%
activity at 3 µM [1, 8]: 47%
AC50 [2]: 2.37 µM
HepG2 viability signal, 1 uM, repeat 2 (HepG2-A16-CD81EGFP cells; [9]): 96.28%
HepG2 viability signal, 3 uM, repeat 2 (HepG2-A16-CD81EGFP cells; [10]): 96.50%
viability at 48 h, 1 µM (in vitro; [11]): 98%
viability at 48 h, 3 µM (in vitro; [11]): 96.8%

CCN1CCN(Cc2c(O)ccc3c(=O)c(Oc4ccccc4C(C)C)c(C(F)(F)F)oc23)CC1 [NCGC00100599-01]
activity at 1 µM [1, 3]: 78.6%
activity at 1 µM [1, 4]: 113%
activity at 1 µM [1, 5]: 135%
activity at 3 µM [1, 6]: 70%
activity at 3 µM [1, 7]: 89.4%
activity at 3 µM [1, 8]: 121%
AC50 [2]: 0.596 µM
HepG2 viability signal, 1 uM, repeat 2 (HepG2-A16-CD81EGFP cells; [9]): 96.13%
HepG2 viability signal, 3 uM, repeat 2 (HepG2-A16-CD81EGFP cells; [10]): 100.51%
viability at 48 h, 1 µM (in vitro; [11]): 97.5%
viability at 48 h, 3 µM (in vitro; [11]): 99.2%

CCCOC(=O)c1c(NC(=O)C(C)Sc2nc(-c3ccccc3)cc(C(F)(F)F)n2)sc(C(=O)N(C)C)c1C (centres unmarked) [NCGC00101274-01]
activity at 1 µM [1, 3]: 94.7%
activity at 1 µM [1, 4]: 104%
activity at 1 µM [1, 5]: 101%
activity at 3 µM [1, 6]: 61.7%
activity at 3 µM [1, 7]: 98.3%
activity at 3 µM [1, 8]: 113%
AC50 [2]: 1.68 µM
HepG2 viability signal, 1 uM, repeat 2 (HepG2-A16-CD81EGFP cells; [9]): 104.19%
HepG2 viability signal, 3 uM, repeat 2 (HepG2-A16-CD81EGFP cells; [10]): 103.13%
viability at 48 h, 1 µM (in vitro; [11]): 98.8%
viability at 48 h, 3 µM (in vitro; [11]): 100%

CC1=C(C(=O)Nc2ccc(C)cc2C)C(c2ccc(Br)cc2)n2ncc(C(=O)Nc3cccc(C)c3)c2N1 (centres unmarked) [NCGC00126300-01]
activity at 1 µM [1, 3]: 94.7%
activity at 1 µM [1, 4]: 120%
activity at 1 µM [1, 5]: 115%
activity at 3 µM [1, 6]: 75.3%
activity at 3 µM [1, 7]: 87.7%
activity at 3 µM [1, 8]: 102%
AC50 [2]: 3.35 µM
HepG2 viability signal, 1 uM, repeat 2 (HepG2-A16-CD81EGFP cells; [9]): 95.30%
HepG2 viability signal, 3 uM, repeat 2 (HepG2-A16-CD81EGFP cells; [10]): 90.59%
viability at 48 h, 1 µM (in vitro; [11]): 102%
viability at 48 h, 3 µM (in vitro; [11]): 94.6%

Cn1nnnc1SCCCNCc1cccc(OCc2ccccc2)c1 [NCGC00117957-01]
activity at 1 µM [1, 3]: 78.6%
activity at 1 µM [1, 4]: 108%
activity at 1 µM [1, 5]: 127%
activity at 3 µM [1, 6]: 58.9%
activity at 3 µM [1, 7]: 94%
activity at 3 µM [1, 8]: 87.5%
AC50 [2]: 9.44 µM
HepG2 viability signal, 1 uM, repeat 2 (HepG2-A16-CD81EGFP cells; [9]): 101.95%
HepG2 viability signal, 3 uM, repeat 2 (HepG2-A16-CD81EGFP cells; [10]): 103.35%
viability at 48 h, 1 µM (in vitro; [11]): 97.9%
viability at 48 h, 3 µM (in vitro; [11]): 101%

O=C(Nc1ccc2c(N3CCOCC3)ncnc2c1)c1ccc(Br)o1 [NCGC00425547-01]
activity at 1 µM [1, 3]: 126%
activity at 1 µM [1, 4]: 99.1%
activity at 1 µM [1, 5]: 129%
activity at 3 µM [1, 6]: 123%
activity at 3 µM [1, 7]: 89.4%
activity at 3 µM [1, 8]: 131%
AC50 [2]: 2.66 µM
HepG2 viability signal, 1 uM, repeat 2 (HepG2-A16-CD81EGFP cells; [9]): 103.01%
HepG2 viability signal, 3 uM, repeat 2 (HepG2-A16-CD81EGFP cells; [10]): 102.12%
viability at 48 h, 1 µM (in vitro; [11]): 110%
viability at 48 h, 3 µM (in vitro; [11]): 106%

COc1ccc(-c2cc([C@H]3CN4CC[C@H]3C[C@@H]4CN[S+](=O)([O-])c3ccc(Cl)cc3)n(C)n2)cc1OC [NCGC00399828-01]
activity at 1 µM [1, 3]: 68.5%
activity at 1 µM [1, 4]: 88.1%
activity at 1 µM [1, 5]: 52.2%
activity at 3 µM [1, 6]: 40.7%
activity at 3 µM [1, 7]: 77%
activity at 3 µM [1, 8]: 89.6%
AC50 [2]: 2.99 µM
HepG2 viability signal, 1 uM, repeat 2 (HepG2-A16-CD81EGFP cells; human, 48 h, 1 µM): 102.24%
HepG2 viability signal, 3 uM, repeat 2 (HepG2-A16-CD81EGFP cells; human, 48 h, 3 µM): 102.23%
viability at 48 h, 1 µM (in vitro): 98.9%
viability at 48 h, 3 µM (in vitro): 99.9%

COc1cccc(C2C(C(=O)Nc3ccc(C)cc3C)=C(C)Nc3c(C(=O)Nc4ccccc4)cnn32)c1 (centres unmarked) [NCGC00126286-01]
activity at 1 µM [1, 3]: 97.2%
activity at 1 µM [1, 4]: 125%
activity at 1 µM [1, 5]: 153%
activity at 3 µM [1, 6]: 94.7%
activity at 3 µM [1, 7]: 93.4%
activity at 3 µM [1, 8]: 100%
AC50 [2]: 2.11 µM
HepG2 viability signal, 1 uM, repeat 2 (HepG2-A16-CD81EGFP cells; [9]): 98.62%
HepG2 viability signal, 3 uM, repeat 2 (HepG2-A16-CD81EGFP cells; [10]): 98.36%
viability at 48 h, 1 µM (in vitro; [11]): 94.8%
viability at 48 h, 3 µM (in vitro; [11]): 99.4%
